Results as given in patent publication US20150320696A1, “COMBINATION THERAPY FOR CANCER” (priority 2012, published 2015).

Columns and labels:
[1] = tested on: colorectal cancer cell line DLD1; assay: MTT cytotoxic assay, DLD1 cells; assay type: cell-based
Method: (§1) The cytotoxic effects of terpinen-4-ol on cells were measured with the 3-[4,5-dimethylthiazol-2-yl]-2,5 diphenyltetrazolium (MTT) assay. Cells were seeded in 96-well plates (1×10^4 cells/well) in complete medium. After 12-16 hours of growth, different concentrations of each of the described agents were added to the cells in triplicates. 72 h later, the medium was replaced with fresh medium (100 μl per well) containing 1 mg/ml MTT and the cell were further incubated for 2 to 4 h. MTT-formazan crystals were dissolved by the addition of 100 μl extraction buffer. Absorbance at 570 nm and reference wavelength of 690 nm were recorded on an automated microplate reader. The relative number of viable cells compared to control cell line grown under the same condition, but without the added examined agent was determined.

[2] = tested on: colorectal cancer cell line HT29; assay: MTT cytotoxic assay, HT29 cells; assay type: cell-based, Human
Method: as §1

[3] = tested on: pancreatic cancer cell line MIA-PACA; assay: MTT cytotoxic assay, MIA-PACA cells; assay type: cell-based, Human
Method: as §1

[4] = tested on: pancreatic cancer cell line PANC-1; assay: MTT cytotoxic assay, PANC-1 cells; assay type: cell-based, Human
Method: as §1

[5] = tested on: pancreatic cancer cell line COLO 357; assay: MTT cytotoxic assay, COLO 357 cells; assay type: cell-based, Human
Method: as §1, with “Human colon adenocarcinoma grade II cells, HT29; Human colon carcinoma cells, HCT116; Human colonic carcinoma cells, COLO 320; Human cell line” for “The cytotoxic effects”, “metastatic pancreatic adenocarcinoma, COLO 357; Human pancreatic carcinoma epithelial-like cell line, PANC-1; and Human pancreatic carcinoma cells, MIA-PACA” for “terpinen-4-ol on cells”, “grown in high-glucose Dulbecco's modified Eagle's medium (DMEM) supplemented” for “measured”, “5% heat-inactivated (HI) fetal bovine serum (FBS), 1% Glutamine and streptomycin/penicillin. […]” for “the 3-[4,5-dimethylthiazol-2-yl]-2,5 diphenyltetrazolium (MTT) assay.”

[6] = tested on: prostate cancer cell line DU145; assay: MTT cytotoxic assay, DU145 cells; assay type: cell-based, Human
Method: (§2) Androgen-independent, highly anaplastic prostate cancer cell line with moderate metastatic potential, DU145; Aggressive androgen-independent anaplastic cell line, CL-1; and the colorectal adenocarcinoma DLD1 cells were grown in RPMI-1640 medium supplemented with 5% HI-FBS.
as §1

[7] = tested on: prostate cancer cell line CL-1; assay: MTT cytotoxic assay, CL-1 cells; assay type: cell-based
Method: as §2, §1

cancer cell lines = assay: MTT cytotoxic assay, all cancer cell lines examined (general statements); assay type: cell-based; settings: terpinen-4-ol at a concentration of 0.01%
Method: Human colon adenocarcinoma grade II cells, HT29; Human colon carcinoma cells, HCT116; Human colonic carcinoma cells, COLO 320; Human cell line of metastatic pancreatic adenocarcinoma, COLO 357; Human pancreatic carcinoma epithelial-like cell line, PANC-1; and Human pancreatic carcinoma cells, MIA-PACA were grown in high-glucose Dulbecco's modified Eagle's medium (DMEM) supplemented with 5% heat-inactivated (HI) fetal bovine serum (FBS), 1% Glutamine and streptomycin/penicillin.
as §2
as §1, with “72 h later, the medium was replaced with fresh medium (100 μl per well) containing 1 mg/ml MTT and the cell were further incubated for 2 to 4 h. MTT-formazan crystals were dissolved by the addition of 100 μl extraction buffer.” left out

[8] = tested on: DLD-1 colorectal cancer cell line xenograft; assay: Xenograft model of nude mice bearing DLD-1 colorectal cancer cell line; assay type: in vivo, athymic nude mice
Method: Male athymic nude mice, 6-8 weeks old, (Harlan Laboratories) were housed in sterile cages and handled with aseptic precautions. The mice were fed ad libitum. The therapeutic anti-cancer activity of terpinen-4-ol alone or in combination with additional anti-cancer agents was examined as follows: exponentially growing DLD1 cancer cells were harvested and resuspended at a final concentration of 5×10^6 cells per 0.2 ml PBS per injection. The cells were injected subcutaneously at two sites on the backs of the mice. When tumors were palpable, mice were randomly divided into the treatment groups as described hereinbelow.
At the 9th day after cell injection mice were randomly divided into treatment and control groups and the treatment was started by intra-tumor injection. The control group (5 mice) received 50 μl of a PBS solution with 1% DMSO; the treatment group (5 mice) received 50 μl of PBS solution with 1% DMSO containing 0.1% (v/v) terpinen-4-ol (1A).
Mice were treated every second day. The mice were weighed and tumor volume was measured every three days (with a caliper) starting from the onset of treatment with terpinen-4-ol/control. Tumor volume was calculated as 4/3π·a·b^2. At the end of the experiment, the mice were sacrificed by cervical dislocation after anesthesia and the tumors were excised and measured for volume and weight. Half of each tumor was preserved in −80° C. and the other half was preserved in 4% formaldehyde.
At the 11th day after cell implantation, mice were randomly divided into groups and the treatment started. The chemotherapeutic agent (cetuximub, referred to hereinafter by its trade name Erbitox®) was administered via intraperitoneal (i.p) injection 24 hours before administration of terpinen-4-ol. The terpinen-4-ol was administered directly into the tumor (intra-tumor injection).
Mice were treated every second day for 2 weeks. Mice were weighed and tumor volume was measured with a caliper before each additional treatment. Tumor volume was calculated as 4/3π·a·b^2.

human M14 melanoma cells = settings: Calcabrini A et al., 2004; cited from earlier work
[9] = tested on: drug (adriamicin)-resistant cell line (ADR); settings: cell line expressing high levels of P-glycoprotein; Calcabrini A et al., 2004; cited from earlier work
[10] = tested on: murine AE17 mesothelioma tumor cell line; settings: Greay S J et al., 2010; cited from earlier work
[11] = tested on: murine B16 melanoma tumor cell line; settings: Greay S J et al., 2010; cited from earlier work

CC1=CCC(O)(C(C)C)CC1 (stereo not drawn) [terpinen-4-ol, 4-methyl-1-(1-methylethyl)-3-cyclohexen-1-ol]
concentration dependence of cytotoxic effect ([1]; 0.005%, 0.01%, 0.02% and 0.10% (v/v), FIG. 2A): concentration dependent
dependence of cytotoxic activity on DMSO ([1]; 0.01% DMSO added to medium containing 0.01%, 0.05% or 0.10% terpinen-4-ol, FIG. 1A): does not depend on the presence of DMSO
concentration dependence of cytotoxic effect ([2]; 0.005%, 0.01%, 0.02% and 0.10% (v/v), FIG. 2B): concentration dependent
dependence of cytotoxic activity on DMSO ([2]; 0.01% DMSO added to medium containing 0.01%, 0.05% or 0.10% terpinen-4-ol, FIG. 1B): does not depend on the presence of DMSO
cytotoxic activity in the presence of DMSO compared to without ([2]; 0.01% DMSO, FIG. 1B): lower activity
concentration dependence of cytotoxic effect ([3]; 0.005%, 0.01%, 0.02% and 0.10% (v/v), FIG. 2E): concentration dependent
dependence of cytotoxic activity on DMSO ([3]; 0.01% DMSO added to medium containing 0.01%, 0.05% or 0.10% terpinen-4-ol, FIG. 1D): does not depend on the presence of DMSO
concentration dependence of cytotoxic effect ([4]; 0.005%, 0.01%, 0.02% and 0.10% (v/v), FIG. 2F): concentration dependent
dependence of cytotoxic activity on DMSO ([4]; 0.01% DMSO added to medium containing 0.01%, 0.05% or 0.10% terpinen-4-ol, FIG. 1C): does not depend on the presence of DMSO
concentration dependence of cytotoxic effect ([5]; 0.005%, 0.01%, 0.02% and 0.10% (v/v), FIG. 2G): concentration dependent
dependence of cytotoxic activity on DMSO ([5]; 0.01% DMSO added to medium containing 0.01%, 0.05% or 0.10% terpinen-4-ol, FIG. 1E): does not depend on the presence of DMSO
concentration dependence of cytotoxic effect ([6]; 0.005%, 0.01%, 0.02% and 0.10% (v/v), FIG. 2C): concentration dependent
dependence of cytotoxic activity on DMSO ([6]; 0.01% DMSO added to medium containing 0.01%, 0.05% or 0.10% terpinen-4-ol, FIG. 1F): does not depend on the presence of DMSO
concentration dependence of cytotoxic effect ([7]; 0.005%, 0.01%, 0.02% and 0.10% (v/v), FIG. 2D): concentration dependent
dependence of cytotoxic activity on DMSO ([7]; 0.01% DMSO added to medium containing 0.01%, 0.05% or 0.10% terpinen-4-ol, FIG. 1G): does not depend on the presence of DMSO
cytotoxic effectiveness (cancer cell lines): moderately effective
volume of the implanted tumor ([8]; Example 5, intra-tumor injection of 50 μl 0.1% terpinen-4-ol (about 1.65 mg/Kg per injection) every second day, vs control, FIG. 5A): significantly reduced
weight of the implanted tumor ([8]; Example 5, intra-tumor injection of 50 μl 0.1% terpinen-4-ol (about 1.65 mg/Kg per injection) every second day, vs control, end of assay, FIG. 5B): significantly reduced
effect on the tumor growth ([8]; Example 6, 0.1% terpinen-4-ol intra-tumor, after two weeks of treatment): only minor effect
reduction of tumor size compared to control ([8]; Example 6, 50 μl 0.1% terpinen-4-ol intra-tumor every second day, after two weeks of treatment, FIG. 6): about 3.7%
effect on cell growth (human M14 melanoma cells): impair the growth
effectiveness relative to parental M14 cells [9]: more effective
anti-proliferative effect [10]: significant anti-proliferative effects
anti-proliferative effect [11]: significant anti-proliferative effects
